From article PMC12378621, “Benzo-ring modification on Malaria Box hit MMV008138: effects on antimalarial potency and microsomal stability” (RSC Medicinal Chemistry, 2025)
Several values for one entry are separate records, joined by “and”; a condition that tells them apart may be missing. Equal values may be shown once. Read-outs that look alike come from different tables or passages of the source.

What was measured:
[1] = tested on: P. falciparum (Dd2 strain); conditions: 72 h exposure, multidrug-resistant Dd2 strain; reported values; read-out: Dd2 strain EC50; cited from earlier work
[2] = tested on: P. falciparum (Dd2 strain); test: ABS P. falciparum growth inhibition, SYBR Green I assay, 72 h endpoint; type: cell-based, Plasmodium falciparum; conditions: for EC50: Plasmodium falciparum, DD2, SYBR Green I, 72 h endpoint, read-out: Dd2 strain P. falciparum growth inhibition EC50; for loss of growth inhibition potency (EC50) relative to 1: Dd2 strain
Method: Parasites were maintained in O-positive human erythrocytes (Grifols, Memphis, TN, USA) at 5% hematocrit in RPMI 1640 medium supplemented with 5 g L^−1 Albumax I (Gibco Life Technologies), 2 g L^−1 glucose (Sigma-Aldrich), 2.3 g L^−1 sodium bicarbonate (Sigma-Aldrich), 370 μM hypoxanthine (Sigma-Aldrich), 25 mM HEPES, and 20 mg L^−1 gentamicin (Gibco Life Technologies). The parasites were kept at 37 °C under reduced-oxygen conditions (5% CO2, 5% O2, and 90% N2).
(§1) […]. MMV008138 (1) was used as control. The percentage of growth was normalized to that of untreated control parasites in the presence of 0.1% DMSO. Background determinations were made using uninfected erythrocytes. Two or more independent experiments in duplicate were performed. The EC50 values were calculated with GraphPad Prism 9 (GraphPad Software Ltd.) using nonlinear regression curve fitting with variable slope (four parameters) and represent the average and their standard error of the mean (S.E.M.). To assess whether 20a–e specifically targeted the apicoplast, the recovery of growth in the presence of inhibitor and isopentenyl diphosphate (IPP) was performed as described previously.[8] Briefly, parasites were grown in the presence or absence of 200 μM IPP along with a serial dilution (10 μM to 0.01 μM) or single concentration (10 or 20 μM) of drug. […] All conditions were set in 96-well half area plates using highly synchronous ring-stage parasite cultures (100 μL per well at 1% hematocrit and 1% parasitemia) and incubated for 72 h under normal culture conditions. Parasite growth was measured by the SYBR green I assay.

[3] = tested on: P. falciparum (Dd2 strain); test: Metabolic rescue of parasite growth by isopentenyl diphosphate (IPP) supplementation; type: cell-based, Plasmodium falciparum; conditions: drug at 10 μM
Method: as §1

[4] = tested on: Plasmodium berghei ANKA expressing luciferase (PbGFP-Luccon); test: In vivo efficacy in P. berghei-infected mice (luminescence on Day 7)
Method: 2. In vivo efficacy studies of 1 (NYU) in P. berghei-infected mice (po and iv) Efficacy of 1 in P. berghei-infected mice was assessed at the Anti-Infectives Core Facility, Department of Microbiology, Grossman School of Medicine, New York University.
A. Oral Administration Protocol
Three groups of five female Swiss Webster mice weighing 25 to 30 g were used for vehicle […]
berghei ANKA expressing luciferase (PbGFP-Luccon) obtained from a donor infected mouse.10 […]
2 to 6 and imaged on day 7.
Figure S1. Dosing and imaging timeline of P. berghei-infected mice. […]
Day 7 as described in the text.
The vehicle for all groups was 0.5% (hydroxypropyl)methyl cellulose, 0.5% Tween-80.
For the surviving mice, o n day 7 after infection, mice were anesthetized by inhalation of isofluorane and injected via i.p. with 150 mg/kg of luciferase substrate dissolved in PBS (D-Luciferin Potassium Salt , Gold Biotechnology ).
Mice were imaged 5 to 10 min after inj ection of luciferin using an IVIS imager (Lumina II In Vivo Imaging System; Perkin -Elmer). The data acquisition and analysis were performed with LivingImage (Xenogen). Accumulated light intensity was measured in each mouse to determine the baseline infection levels before treatment .
(1 picture or pasted object on this page, not shown here)
B. IV Administration Protocol
One group of four female Swiss Webster mice weighing 25 to 30 g were used for vehicle control, and groups of five mice were used for 1 treatment (IV, 2 x 30 mg/kg/d) and the positive […]
On Day 0, mice were infected via intraperitoneal (i.p.) […]
from a donor infected mouse. 10 As shown below in Figure S2 (and legend), mice were treated […]
Figure S2. Dosing and imaging timeline of P. berghei-infected mice. Vehicle and 1 (30 mpk) treatments were administered IV twice -daily on Days 2-6. […]
administered i .p. once-daily. Mice were imaged on Day 7, as described in the text.
The vehicle for this study was 30%PEG, 40% Captisol (30%w/v solution).
Table S2. Luminescence Data after background subtraction for IV dosing of Vehicle, 1, and IP […]
Table S9. Concentration of 20c vs time in mice. […]
Figure S6. Dosing and imaging timeline of P. berghei-infected mice. […]

[5] = Mouse microsomal stability (authors' laboratory, UPLC/MS/MS); conditions: presence of NADPH
Method: Mouse microsomal stability of 20a, 20c, 20d was first assessed in our laboratory. […]
and coumarin were used as controls . Microsomal stability was assessed by ultra-performance liquid chromatography and high -resolution mass spectrometry […]
MA). Potassium phosphate monobasic, potassium phosphate dibasic, and coumarin were purchased from Sigma-Aldrich (St. Louis, MO). Briefly, compound incubations were carried out by the addition of mouse liver microsomes (0.5 mg/ml) in 0.05 M potassium phosphate buffer (pH 7.4), solution A and B, and preincubated at 37°C for 5 min. Control experiments were also carried out in the absence of NADPH solution A and B. Coumarin reaction was used as positive control. Reactions were terminated by adding acetonitrile. Sample analysis was performed on an IonKey/MS system composed of an ACQUITY UPLC M-Class, the ionKey source, and an iKey BEH C18 130 Å 1.7 µm 150 µm x 50 mm column coupled to a Synapt G2-Si mass spectrometer (Waters Corporation, Milford, MA, USA). Separation was accomplished using a binary gradient system consisting of 0.1% formic acid in water (mobile phase A) and 0.1% formic acid in acetonitrile (mobile phase B). The linear gradient was programmed as follows: 0-3 min 1% B, 3- […]
was 3 µL/min, the injection volume was 3 µL in full loop mode, and the iKey temperature was set at 40°C. MS analyses were performed acquiring in MSE mode from 80 to 1500 m/z in positive electrospray ionization mode with a capillary voltage of 3 kV. Data were collected in two channels all the time: low collision energy (6.0 V), for the molecular ions, and high collision energy (15-40 V), for product ions. The source temperature was set at 110°C. Leucine […]
scan at 20 s intervals. Infusion flow rate for lock mass was 1 μL/min. The microsomal stability was determined using MassLynx software (Waters Corporation, Milford, MA, USA). Relative amounts were calculated by comparing the peak area of each evaluated compound at time 0 minutes to its corresponding area at times 45, 90 and 180 minutes to return a ratio.

[6] = Table 2, enantiopure, average ± S.E.M
[7] = Table S2, Days 2-6, imaged Day 7, Cmpd 1 30 mg/kg 2 x daily IV, CQ 20 mg/kg 1 x daily i.p.

Q: For `O=C(O)[C@@H]1Cc2c([nH]c3ccccc23)[C@@H](c2ccccc2)N1` [Compound 5], which EC50 [1] is on record?
A: > 10 µM

Q: Which EC50 ([2]; Table 1, racemic samples) does the source give for `Cc1ccc2c3c([nH]c2c1)[C@@H](c1ccc(Cl)cc1Cl)N[C@H](C(=O)O)C3` (racemic) [(±)-16c] here?
A: > 10 µM

Q: With `Cc1cccc2c3c([nH]c12)[C@@H](c1ccc(Cl)cc1Cl)N[C@H](C(=O)O)C3` (racemic) [(±)-16d] as the molecule, how does the EC50 ([2]; Table 1, racemic samples) read?
A: > 10 µM

Q: Which EC50 [1] does the source give for `CC(C)NC(=O)[C@@H]1Cc2c([nH]c3ccccc23)[C@@H](c2ccc(Cl)cc2Cl)N1` [Compound 10] here?
A: ~10 µM

Q: Which EC50 [1] does the source give for `CCNC(=O)[C@@H]1Cc2c([nH]c3ccccc23)[C@@H](c2ccc(Cl)cc2Cl)N1` [Compound 8] here?
A: ~5 µM

Q: For `Cc1ccc2[nH]c3c(c2c1)C[C@@H](C(=O)O)N[C@@H]3c1ccc(Cl)cc1Cl` (racemic) [(±)-16b], which EC50 ([2]; Table 1, racemic samples) is on record?
A: > 10 µM

Q: For `O=C(O)[C@@H]1Cc2c([nH]c3cccc(Br)c23)[C@@H](c2ccc(Cl)cc2Cl)N1` [Compound 18a], which EC50 [2, 6] is on record?
A: > 10 µM

Q: With `O=C(O)[C@@H]1Cc2c([nH]c3ccccc23)[C@@H](c2ccc(Cl)cc2)N1` [Compound 4] as the molecule, how does the EC50 [1] read?
A: 1.17 µM

Q: Which EC50 [1] does the source give for `NC(=O)[C@@H]1Cc2c([nH]c3ccccc23)[C@@H](c2ccc(Cl)cc2Cl)N1` [Compound 6] here?
A: 1.2 µM

Q: Which EC50 ([2]; Table 1, racemic samples) does the source give for `Cc1cccc2[nH]c3c(c12)C[C@@H](C(=O)O)N[C@@H]3c1ccc(Cl)cc1Cl` (racemic) [(±)-16a] here?
A: > 10 µM

Q: Which EC50 [2, 6] does the source give for `O=C(O)[C@@H]1Cc2c([nH]c3ccc(F)cc23)[C@@H](c2ccc(Cl)cc2Cl)N1` [Compound 20b] here?
A: 1.25 to 2.5 µM

Q: Which EC50 [2, 6] does the source give for `O=C(O)[C@@H]1Cc2c([nH]c3c(Br)cccc23)[C@@H](c2ccc(Cl)cc2Cl)N1` [Compound 18d] here?
A: > 10 µM

Q: For `O=C(O)[C@@H]1Cc2c([nH]c3cccc(C(F)(F)F)c23)[C@@H](c2ccc(Cl)cc2Cl)N1` (racemic) [(±)-17a], which EC50 ([2]; Table 1, racemic samples) is on record?
A: > 10 µM

Q: Which results are given for `O=C(O)[C@@H]1Cc2c([nH]c3cc(F)cc(F)c23)[C@@H](c2ccc(Cl)cc2Cl)N1` [Compound 20e]?
A: % recovery (200 μM IPP) [3]: 80%@10 μM; EC50 [2, 6]: 0.964 ± 0.063 µM

Q: Which EC50 ([2]; Table 1, racemic samples) does the source give for `O=C(O)[C@@H]1Cc2c([nH]c3cccc(Cl)c23)[C@@H](c2ccc(Cl)cc2Cl)N1` (racemic) [(±)-19a] here?
A: > 10 µM

Q: Which EC50 [1] does the source give for `O=C(O)[C@@H]1Cc2c([nH]c3ccccc23)[C@@H](c2ccccc2Cl)N1` [Compound 3] here?
A: 3.28 µM

Q: With `O=C(O)[C@@H]1Cc2c([nH]c3cc(C(F)(F)F)ccc23)[C@@H](c2ccc(Cl)cc2Cl)N1` (racemic) [(±)-17c] as the molecule, how does the EC50 ([2]; Table 1, racemic samples) read?
A: 1.25 to 2.5 µM

Q: Which “Luminescence AVG” value ([4]; Table S1, oral 1 x daily Days 2-6, imaged Day 7, CQ 20 mg/kg) does the source give for `CCN(CC)CCCC(C)Nc1ccnc2cc(Cl)ccc12` (centres unmarked) [CQ, chloroquine] here?
A: 4.65E+03

Q: And the “Live/Dead and luminescence, individual mice” value ([4]; Table S1, oral 1 x daily Days 2-6, imaged Day 7, Cmpd 1 45 mg/kg, CQ 20 mg/kg)?
A: 4.72E+03 and 4.45E+03 and 4.90E+03 and 4.60E+03 and 4.61E+03

Q: What about the “Luminescence after background subtraction AVG” value [4, 7] of the same molecule?
A: 2.29E+03

Q: And the “Luminescence after background subtraction, individual mice” value [4, 7]?
A: 0.00E+00 and 4.64E+03 and 2.76E+03 and 3.48E+03

Q: And the “Luminescence after background subtraction, individual mice” value ([4]; Table S10, 40 mg/kg 1 x daily PO Days 2-6, imaged Day 7)?
A: 4.90E+03 and 3.85E+03 and 4.20E+03

Q: And the “treated mice survived to Day 7” value ([4]; oral Days 2-6)?
A: 5

Q: For `O=C(O)[C@@H]1Cc2c([nH]c3cc(Cl)ccc23)[C@@H](c2ccc(Cl)cc2Cl)N1` [Compound 19c], which “loss of growth inhibition potency (EC50) relative to 1” value [2] is on record?
A: 5 fold

Q: What about the EC50 [2, 6] of the same molecule?
A: 1.3 ± 0.1 µM

Q: With `N#Cc1ccc2c3c([nH]c2c1)[C@@H](c1ccc(Cl)cc1Cl)N[C@H](C(=O)O)C3` [Compound 21c] as the molecule, how does the EC50 [2, 6] read?
A: > 20 µM

Q: With `O=c1ccc2ccccc2o1` [coumarin] as the molecule, how does the “% drug remaining” value ([5]; 0 min) read?
A: 100%

Q: And the “% drug remaining” value ([5]; 45 min)?
A: 27%

Q: And the “% drug remaining” value ([5]; 90 min)?
A: 5%

Q: For `O=C(O)[C@@H]1Cc2c([nH]c3ccccc23)[C@@H](c2ccc(Br)cc2Cl)N1` [Compound 2], which EC50 [1] is on record?
A: 0.32 ± 0.06 µM

Q: With `N#Cc1ccc2[nH]c3c(c2c1)C[C@@H](C(=O)O)N[C@@H]3c1ccc(Cl)cc1Cl` [Compound 21b] as the molecule, how does the EC50 [2, 6] read?
A: > 10 µM

Q: With `N#Cc1cccc2[nH]c3c(c12)C[C@@H](C(=O)O)N[C@@H]3c1ccc(Cl)cc1Cl` [Compound 21a] as the molecule, how does the EC50 [2, 6] read?
A: > 10 µM

Q: For `CCCCNC(=O)[C@@H]1Cc2c([nH]c3ccccc23)[C@@H](c2ccc(Cl)cc2Cl)N1` [Compound 9], which EC50 [1] is on record?
A: > 10 µM

Q: With `O=C(O)[C@@H]1Cc2c([nH]c3cc(Br)ccc23)[C@@H](c2ccc(Cl)cc2Cl)N1` [Compound 18c] as the molecule, how does the “loss of growth inhibition potency (EC50) relative to 1” value [2] read?
A: 17 fold

Q: What about the EC50 [2, 6] of the same molecule?
A: 4.3 ± 0.6 µM

Q: Which EC50 [1] does the source give for `CNC(=O)[C@@H]1Cc2c([nH]c3ccccc23)[C@@H](c2ccc(Cl)cc2Cl)N1` [Compound 7] here?
A: 0.19 ± 0.03 µM

Q: With `O=C(O)[C@@H]1Cc2c([nH]c3ccc(Br)cc23)[C@@H](c2ccc(Cl)cc2Cl)N1` (racemic) [(±)-18b] as the molecule, how does the EC50 ([2]; Table 1, racemic samples) read?
A: > 10 µM
